Source: patent publication US10377778B2, “Lead and thorium compounds” (Sciencons AS, priority 2017, dated 2019)

Key:
[1] = Stability testing of ^212Pb-labeled ligands in vitro (TLC radiochemical purity in PBS and FBS); format: physicochemical; conditions: 37° C.
Method: (§1) Thin layer chromatography (TLC) was performed using chromatography strips (model #150-772, Biodex Medical Systems Inc, Shirley, N.Y., USA). A formulation buffer (FB) consisting of 7.5% human serum albumin and 5 mM EDTA in DPBS and adjusted to approximately pH 7 with NaOH was mixed with the antibody conjugates in ratio 2:1 for at least 5 minutes before application to the strips to determine free radionuclide. A small beaker with about 0.5 ml of 0.9% NaCl was used to place strips with a sample spot in. To the strip was typically added 1-4 μl of sample at approximately 10% above the bottom of the strip. After the solvent front had moved to about 20% from the top of the strip, the strip was cut in half and each half was placed in a 5 ml test tube for counting. In this system radiolabeled ligand stays at the bottom half while radionuclide complexed with EDTA migrates to the upper half. It was verified that free cations of both ^212Pb and ^177Lu would complex with EDTA and moved to the top.
TLC analyses were performed at 1 h, 4 h, 24 h and 48 h of incubation. […]

C4-2 cells = experiment: Radiolytic stability: cell binding fraction after storage in ^224Ra solution; parameters: species or system human
Method: (§2) Initial activity in the solution was about 5 MBq/ml causing an absorbed radiation dose to the solution of about 1.8 Gy after 24 h and 3.3 Gy after 48 hours. The data (Table 2) indicate a slight decline at the longest exposure time but in general a relatively strong radiolytic resistance of the ligand was observed, which is compatible with centralized production and shipment to the end user ^224Ra-based generator solution with or without removal of ^224Ra prior to the administration of product.

[2] = Radiolytic stability: TLC measured RCP when kept in ^224Ra solution; format: physicochemical
Method: as §1, §2

[3] = system: C4-2 PSMA-positive xenografts; experiment: Biodistribution of radiolabelled ligands (^224Ra/^212Pb solutions, ^177Lu) in nude mice with C4-2 xenografts
Method: Each group usually consisted of three mice. […] Approximately 16 kBq of ^224Ra/^212Pb was injected in each animal, i.e., approximately 0.2 nmol of ligand per mouse. Animals were given anaesthesia and sacrificed by cervical dislocation followed by dissection and harvesting of tissue-, blood- and urine samples. The samples were weighed and counted on a gamma counter.
Three mice in each group. […] The molar concentration was the same for both products, i.e., 12.5 nmol per MBq. Approximately 16 kBq of ^224Ra/^212Pb was injected in each animal, i.e., approximately 0.2 nmol of ligand per mouse. Animals were given anaesthesia and sacrificed by cervical dislocation followed by dissection and harvesting of tissue-, blood- and urine samples. The samples were weighed and counted on a gamma counter.
Methods: Tumor and kidney uptake of ^212Pb-labeled p-SCN-Bn-TCMC-PSMA ligand 1 and ^177Lu-labeled PSMA-617 was compared at 1 hours and 4 hours after administration of the products by intravenous injection into nude mice with C4-2 xenografts as described in Example 9.

[4] = system: C4-2 PSMA positive human prostate cells xenografts; experiment: Comparative therapy experiment in nude mice with C4-2 xenografts; format: in vivo; conditions: 52 MBq ^177Lu-PSMA-617 or 320 kBq ^212Pb-ligand 1
Method: Male nude mice were inoculated in the flanks with C4-2 PSMA positive human prostate cells and 2 weeks later when tumors were 5-7 mm in diameters. Groups of 8 animals each received saline, 52 MBq of ^177Lu-PSMA-617 or 320 kBq of ^212Pb-p-SCN-Bn-TCMC-PSMA ligand 1. Animals were sacrificed when tumor size reached 20 mm due to animal welfare requirements. […] For ^212Pb the effective half-life was assumed to be 10.6 h, 10% of injected dose per gram decays in tumor and 100% of radiation in a tumor is absorbed in the tumor, 100% retention of ^212Pb and daughters in the tumors and 8 MeV radiation energy per decay. The tumor dosimetry for the injected activities gave on average 35.9 Gy to tumors for ^177Lu-PSMA-617 and 2.06 Gy to tumors for ^212Pb-p-SCN-Bn-TCMC-PSMA ligand 1 groups respectively.

[5] = 4 h after i.v. injection, ^224Ra/^212Pb solution

NC(=O)CN1CCN(CC(N)=O)CCN(CC(N)=O)C(Cc2ccc(NC(=S)NCC3CCC(C(=O)NC(Cc4ccc5ccccc5c4)C(=O)NCCCCC(NC(=O)NC(CCC(=O)O)C(=O)O)C(=O)O)CC3)cc2)CN(CC(N)=O)CC1.[212Pb+2] (stereo not drawn) [^212Pb-p-SCN-Bn-TCMC-PSMA ligand 1]
Radiochemical purity ([1]; FBS, 1 h since start of incubation, in ^224Ra/^212Pb solution): 93.50% | Radiochemical purity ([1]; FBS, 4 h): 94.18% | Radiochemical purity ([1]; FBS, 24 h): 93.54% | Radiochemical purity ([1]; FBS, 48 h): 90.81% | Radiochemical purity ([1]; PBS, 1 h since start of incubation, in ^224Ra/^212Pb solution): 93.26% | Radiochemical purity ([1]; PBS, 4 h): 95.04% | Radiochemical purity ([1]; PBS, 24 h): 95.00% | Radiochemical purity ([1]; PBS, 48 h): 95.11% | Cell binding fraction (C4-2 cells; kept in ^224Ra solution 4 h): 52.3% | Cell binding fraction (C4-2 cells; kept in ^224Ra solution 24 h (about 1.8 Gy)): 48.16% | Cell binding fraction (C4-2 cells; kept in ^224Ra solution 48 h (about 3.3 Gy)): 37.18% | TLC measured RCP ([2]; kept in ^224Ra solution 0.5 h): 93.81% | TLC measured RCP ([2]; kept in ^224Ra solution 1 h): 92.84% | TLC measured RCP ([2]; kept in ^224Ra solution 4 h): 94.75% | TLC measured RCP ([2]; kept in ^224Ra solution 24 h): 94.85% | TLC measured RCP ([2]; kept in ^224Ra solution 48 h): 94.85% | Average tumor-to-kidney ratio ([3]; 1-hour point after administration): 0.40 | Tumor-to-kidney ratio ([3]; 4-hour timepoint): 1.7 | Uptake ratio to ^212Pb-PSMA-617, blood [3, 5]: 1.21 | Uptake ratio to ^212Pb-PSMA-617, kidneys [3, 5]: 0.20 | Uptake ratio to ^212Pb-PSMA-617, liver [3, 5]: 2.67 | Uptake ratio to ^212Pb-PSMA-617, spleen [3, 5]: 0.71 | Uptake ratio to ^212Pb-PSMA-617, tumor ([3]; 4 h after i.v. injection, ^224Ra/^212Pb solution, about 0.2 nmol ligand per mouse): 1.35 | Kidney uptake (average) ([3]; 4 hours after i.v. injection): 8.1 % ID/g | Tumor uptake (average) ([3]; 4 hours after i.v. injection): 13.9 % ID/g | Survival at day 30 after treatment ([4]; groups of 8, saline group 0%): 75% | Median survival ([4]; saline group 15 days): > 30 days
